According to US12122783B2, “Stable salt of 5,10-methylene-(6R)-tetrahydrofolic acid” (MERCK & CIE, priority 2013, dated 2024):
Where a name gives a salt, the structure may show the parent alone.

Columns and labels:
rats = conditions: rat, in vivo, 100 mg/kg/day
dogs = conditions: dog, in vivo, 50 mg/kg/day
[1] = Stability in 85% ethanol at room temperature (XRPD); type: physicochemical; conditions: 85% EtOH, stirred 5 h, filtered and dried
Description: (§1) Powder X-Ray Diffraction (Bruker D8 Advance): Copper Kα radiation, 40 kV/40 mA, LynxEye detector, Bragg-Brentano reflection geometry, 0.02° 2θ step size, 37 s step time, 2.5-50° 2θ range. Powder samples were measured in 0.1-mm or 0.5-mm deep silicon single-crystal sample holders. No special treatment was used in preparing the samples other than the application of slight pressure to get a flat surface. An ambient air atmosphere was used for all measurements, and the samples were rotated during the measurement. Absent any information to the contrary X-Ray Diffraction data is shown as reflection data.
• (b) Stability in 85% ethanol at room temperature
(§2) (6R)-5,10-CH2-THF hemisulfate salt (3.01 g) was dispersed in 100 ml 85% EtOH at room temperature and stirred for 5 h, then filtered and dried at 30° C. and 8 mbar for 12 hours (over night).

[2] = Stability at high temperature/low pressure (XRPD); type: physicochemical; conditions: drying chamber 65 °C, 8 mbar, 21 h
Description: as §1, §2
(6R)-5,10-CH2-THF hemisulfate salt (2.17 g) was placed in a drying chamber at 65° C. and 8 mbar for 21 h.

[3] = Suspension equilibration stability in solvents and mixtures; type: physicochemical
Source text: • (a) Suspension equilibration of (6R)-5,10-CH2-THF hemisulfate salt as starting material at temperatures other than room temperature in a variety of solvents and mixture are summarized in Table 10: […]

[4] = Long-term stability of lyophilisates stored in air, content by HPLC; type: physicochemical; conditions: room temperature, pharmaceutical composition such as a lyophilisate
Description: (§3) In order to determine the long-term stabilities of (6R)-5,10-CH2-THF hemisulfate salt as pharmaceutical compositions, more specifically as lyophilisates (as prepared according to e.g. Example 5), lyophilisates were stored in air at 25° C. and at 60% relative humidity. The content of (6R)-5,10-CH2-THF hemisulfate salt remaining was measured by HPLC at periodic intervals and is given by comparison with the initial value (% rel.).

[5] = Comparative long-term stability of sulfate salt, content by HPLC; type: physicochemical
Description: In order to compare the long-term stabilities of (6R)-5,10-CH2-THF hemisulfate salt, the compounds of the invention, to the long-term stabilities of (6R)-5,10-CH2-THF sulfate salt prepared according to EP 0 537 492 B1, stability data for (6R)-5,10-CH2-THF sulfate salt has been generated at various temperatures and humidities. • (a) Stability of (6R)-5,10-CH2-THF sulfate
(6R)-5,10-CH2-THF sulfate salt was prepared according to literature procedures (EP 0 537 492 B1) and stored for 15 month at −20° C. Subsequently, samples of the product were stored at 5° C. resp. at 25° C. and 60% relative humidity resp. at 40° C. and 75% relative humidity. The content of (6R)-5,10-CH2-THF sulfate salt remaining in the sample was measured by HPLC at periodic intervals. The content of (6R)-5,10-CH2-THF sulfate was compared to the initial value at the time of preparation (% rel.).

patients = assay: Clinical safety data in patients; type: in vivo; conditions: doses of up to 200 mg/m^2
[6] = Phase I/II study ISO-CC-002, pharmacokinetics/pharmacodynamics versus Levoleucovorin in tumor tissue, adjacent mucosa and blood plasma; type: in vivo; conditions: colon cancer patients
Description: (b) In a single-blinded, randomized phase I/II study (ISO-CC-002) performed on 32 patients diagnosed with colon cancer the pharmacokinetic and pharmacodynamic properties of (6R)-5,10-CH2-THF hemisulfate compared to Levoleucovorin in tumor tissue, adjacent mucosa and blood plasma were investigated. The study was performed at the Sahlgrenska University Hospital in Göteborg, Sweden. […] The concentrations of methylenetetrahydrofolate and tetrahydrofolate in both tumor and adjacent mucosa were also much higher after administration of (6R)-5,10-CH2-THF hemisulfate than those obtained after administration of Levoleucovorin.

[7] = TG-FTIR thermogram under N2 flow; type: physicochemical; conditions: 10 K min^−1
Description: TG-FTIR (Netzsch Thermo-Microbalance TG 209 with Bruker FT-IR Spectrometer IFS 28): Al crucible (with microhole); N2 atmosphere; 10 K min^−1 heating rate; 25° C. to 300° C. range.
• (a) The FT Raman spectrum of (6R)-5,10-CH2-THF hemisulfate salt, recorded using a nominal laser power level of 300 mW and 64 scans is shown in FIG. 1. • (b) The corresponding powder X-ray diffractogram, recorded in transmission mode, is shown in FIG. 2. • (c) The TG-FTIR thermogram of (6R)-5,10-CH2-THF hemisulfate salt is shown in FIG. 3. It was carried out under N2 flow (to avoid oxidative degradation). […] Prior to the first heating scan, the sample was equilibrated for three minutes under gaseous nitrogen flow and lost 0.6 wt.-% of its mass during that time. This is consistent with the water content observed in the TG-FTIR thermogram (see FIG. 3) and confirms that this water is loosely bound. The sample was subsequently heated in a closed gold crucible to 254° C. at 10 K min^−1, quench cooled to −50° C., and heated a second time at 10 K min^−1. […] No other thermal events were observed up to 250° C. • (e) The IR spectrum was recorded in a pressed KBr pellet and the characteristic absorption bands are shown in Table 3. • (f) The ^1H NMR spectrum of (6R)-5,10-CH2-THF hemisulfate salt was recorded in DMSO-d6 and the chemical shifts (d) in ppm are shown in Table 8.

[8] = Long-term stability of hemisulfate salt stored in air, content by HPLC; type: physicochemical; conditions: for (6R)-5,10-CH2-THF hemisulfate remaining: solid, air, 25 °C/60% relative humidity
Description: as §3, with “salt, the compounds of the invention” for “salt as pharmaceutical compositions, more specifically as lyophilisates (as prepared according to e.g. Example 5), lyophilisates”

SMILES: Nc1nc2c(c(=O)[nH]1)N1CN(c3ccc(C(=O)N[C@@H](CCC(=O)O)C(=O)O)cc3)C[C@H]1CN2 [(6R)-5,10-CH2-THF hemisulfate salt, 5,10-methylene-(6R)-tetrahydrofolic acid]
- Safety at highest dose-level administered (rats): safe
- Safety at highest dose-level administered (dogs): safe
- X-ray pattern distinctive for crystal form Type 1 [1]: remained unchanged
- X-ray pattern distinctive for crystal form Type 1 [2]: remained unchanged
- Observation (suspension equilibration) ([3]; 2-PrOH with ~2 mM L-ascorbic acid, 40 °C, 3 d): No change
- Observation (suspension equilibration) ([3]; AcOH saturated with L-ascorbic acid, 50 °C, 1 d): No change
- Observation (suspension equilibration) ([3]; AcOH saturated with L-ascorbic acid, 50 °C, 5 d): No change
- Observation (suspension equilibration) ([3]; H2O, 5 °C, 6 d): No change
- Observation (suspension equilibration) ([3]; MeCN saturated with L-ascorbic acid, 50 °C, 5 d): No change
- Observation (suspension equilibration) ([3]; MeOH/formic acid 1:1, 50 °C, 2 h): No change
- Observation (suspension equilibration) ([3]; PEG4500/EtOH 1:9 saturated with L-ascorbic acid, 50 °C, 7 d): No change
- Observation (suspension equilibration) ([3]; THF with ~2 mM L-ascorbic acid, 40 °C, 3 d): No change
- Observation (suspension equilibration) ([3]; formic acid/THF 1:3, 10-20 °C, 6 d): No change
- Stability over a long period of time (conclusion from Table 12) [4]: highly stable
- Stability over a long period of time compared to (6R)-5,10-CH2-THF sulfate ([5]; comparison of Tables 13 and 14 with Example 3): much more stable
- Safety for patients (patients): safe
- Exposure of methylenetetrahydrofolate compared to Levoleucovorin ([6]; blood plasma): substantially greater
- Peak plasma concentrations of methylenetetrahydrofolate compared to Levoleucovorin ([6]; blood plasma): substantially greater
- Concentration of methylenetetrahydrofolate compared to Levoleucovorin ([6]; both tumor and adjacent mucosa): much higher
- Concentration of tetrahydrofolate compared to Levoleucovorin ([6]; both tumor and adjacent mucosa): much higher
- Decomposition temperature (TG-FTIR) [7]: above 210 °C
- Stability over a long period of time (conclusion from Table 11) ([8]; room temperature, pure compound): highly stable
- (6R)-5,10-CH2-THF hemisulfate remaining ([8]; 0 months): 100.0 % rel.
- (6R)-5,10-CH2-THF hemisulfate remaining ([8]; 3 months, listed as (6R)-5,10-CH2-THF hemisulfate (batch 1)): 99.7 % rel.
- (6R)-5,10-CH2-THF hemisulfate remaining ([8]; 3 months, listed as (6R)-5,10-CH2-THF hemisulfate (batch 2)): 99.9 % rel.
- (6R)-5,10-CH2-THF hemisulfate remaining ([8]; 3 months, listed as (6R)-5,10-CH2-THF hemisulfate (batch 3)): 99.5 % rel.
- (6R)-5,10-CH2-THF hemisulfate remaining ([8]; 6 months): 99.5 % rel.
- (6R)-5,10-CH2-THF hemisulfate remaining ([8]; 6 months, listed as (6R)-5,10-CH2-THF hemisulfate (batch 2)): 99.9 % rel.
- (6R)-5,10-CH2-THF hemisulfate remaining ([8]; 9 months, listed as (6R)-5,10-CH2-THF hemisulfate (batch 1)): 99.6 % rel.
- (6R)-5,10-CH2-THF hemisulfate remaining ([8]; 9 months, listed as (6R)-5,10-CH2-THF hemisulfate (batch 2)): 100.0 % rel.
- (6R)-5,10-CH2-THF hemisulfate remaining ([8]; 9 months, listed as (6R)-5,10-CH2-THF hemisulfate (batch 3)): 99.4 % rel.
- (6R)-5,10-CH2-THF hemisulfate remaining ([8]; 12 months, listed as (6R)-5,10-CH2-THF hemisulfate (batch 1)): 99.2 % rel.
- (6R)-5,10-CH2-THF hemisulfate remaining ([8]; 12 months, listed as (6R)-5,10-CH2-THF hemisulfate (batch 2)): 99.7 % rel.
- (6R)-5,10-CH2-THF hemisulfate remaining ([8]; 12 months, listed as (6R)-5,10-CH2-THF hemisulfate (batch 3)): 99.1 % rel.
- (6R)-5,10-CH2-THF hemisulfate remaining ([8]; 18 months, listed as (6R)-5,10-CH2-THF hemisulfate (batch 1)): 99.2 % rel.
- (6R)-5,10-CH2-THF hemisulfate remaining ([8]; 18 months, listed as (6R)-5,10-CH2-THF hemisulfate (batch 2)): 99.4 % rel.
- (6R)-5,10-CH2-THF hemisulfate remaining ([8]; 18 months, listed as (6R)-5,10-CH2-THF hemisulfate (batch 3)): 99.0 % rel.
- (6R)-5,10-CH2-THF hemisulfate remaining ([8]; 24 months, listed as (6R)-5,10-CH2-THF hemisulfate (batch 1)): 99.4 % rel.
- (6R)-5,10-CH2-THF hemisulfate remaining ([8]; 24 months, listed as (6R)-5,10-CH2-THF hemisulfate (batch 2)): 99.4 % rel.
- (6R)-5,10-CH2-THF hemisulfate remaining ([8]; 24 months, listed as (6R)-5,10-CH2-THF hemisulfate (batch 3)): 99.0 % rel.
- (6R)-5,10-CH2-THF hemisulfate remaining ([8]; 36 months, listed as (6R)-5,10-CH2-THF hemisulfate (batch 1)): 98.5 % rel.
- (6R)-5,10-CH2-THF hemisulfate remaining ([8]; 36 months, listed as (6R)-5,10-CH2-THF hemisulfate (batch 2)): 99.0 % rel.

SMILES: Nc1nc2c(c(=O)[nH]1)N1CN(c3ccc(C(=O)N[C@@H](CCC(=O)O)C(=O)O)cc3)C[C@H]1CN2 [(6R)-5,10-CH2-THF sulfate, 5,10-methylene-(6R)-tetrahydrofolic acid]
- (6R)-5,10-CH2-THF sulfate remaining ([5]; 5 °C, 0 months, after 15 months at −20 °C, relative to value at preparation): 98.7 % rel.
- (6R)-5,10-CH2-THF sulfate remaining ([5]; 5 °C, 6 months, after 15 months at −20 °C, relative to value at preparation): 97.3 % rel.
- (6R)-5,10-CH2-THF sulfate remaining ([5]; 25 °C/60% rh, 0 months, after 15 months at −20 °C, relative to value at preparation): 98.7 % rel.
- (6R)-5,10-CH2-THF sulfate remaining ([5]; 25 °C/60% rh, 6 months, after 15 months at −20 °C, relative to value at preparation): 95.5 % rel.
- (6R)-5,10-CH2-THF sulfate remaining ([5]; 40 °C/75% rh, 0 months, after 15 months at −20 °C, relative to value at preparation): 98.7 % rel.
- (6R)-5,10-CH2-THF sulfate remaining ([5]; 40 °C/75% rh, 6 months, after 15 months at −20 °C, relative to value at preparation): 95.0 % rel.
- (6R)-5,10-CH2-THF sulfate remaining ([5]; −20 °C, 0 months): 100.0 % rel.
- (6R)-5,10-CH2-THF sulfate remaining ([5]; −20 °C, 15 months): 98.7 % rel.
